Reference: the supplement of paper PMC4858399
Counter-ions that a name gives are not always drawn.

Key:
[1] = system: Caenorhabditis elegans N2; assay: lowest effective concentration for larval growth inhibition (size below effect threshold); higher = less potent; details: exposure time 48 h
In short: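 Log-transformed well means of per-worm extinction, read as size on a Biosort, came from 50 C. elegans N2 L1 larvae per 96-well grown 48 h at 20°C in K-medium with killed bacteria, 1% DMSO and 0.5 to 200 µM chemical. The lowest effective concentration is the first dose at which the plate-adjusted mean size is below the threshold and stays below it at every higher dose. The threshold is 5.665.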

[2] = system: Caenorhabditis elegans N2; assay: mean nematode size ln(EXT) after 48 h, plate-adjusted (DMSO control set to 6) (ln(EXT), control-adjusted); higher = larger nematodes / less growth inhibition; details: exposure time 48 h
In short: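 Synchronised C. elegans N2 L1 larvae were grown for 48 h at 20°C in K-medium containing killed OP50, 1% DMSO and 0.5–200 µM chemical, at 50 per well and 4–6 wells per treatment. The Biosort recorded extinction for each worm, and a growth model removed debris. Worm size was obtained by natural-logging these values and averaging them per well. For plate adjustment, the vehicle control mean was subtracted and 6 was added.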

Row | SMILES | lowest effective concentration [1] | mean nematode size ln(EXT) (ln) ([2]; 0.5 µM) | mean nematode size ln(EXT) (ln) ([2]; 1 µM) | mean nematode size ln(EXT) (ln) ([2]; 5 µM) | mean nematode size ln(EXT) (ln) ([2]; 10 µM) | mean nematode size ln(EXT) (ln) ([2]; 50 µM) | mean nematode size ln(EXT) (ln) ([2]; 100 µM) | mean nematode size ln(EXT) (ln) ([2]; 200 µM)
1 | O=C(O)C(F)(F)C(F)(F)C(F)(F)C(F)(F)C(F)(F)F [Perfluorohexanoic acid] | > 200 µM | 5.47 | 5.55 | 5.6 | 5.67 | 5.69 | 5.73 | 5.86
2 | Oc1ccccc1 [Phenol] | > 200 µM | 6.09 | 5.98 | 6.01 | 5.98 | 5.94 | 5.92 | 6.02
3 | c1ccc2c(c1)Nc1ccccc1S2 [Phenothiazine] | > 200 µM | 6.07 | 6.03 | 5.92 | 5.8 | 5.55 | 5.59 | 5.99
4 | OCCOc1ccccc1 [Phenoxyethanol] | > 200 µM | 5.77 | 5.98 | 6.04 | 6.07 | 6.15 | 5.99 | 5.97
5 | CCCCC(CC)COC(=O)c1ccccc1C(=O)O (centres undefined) [Phthalic acid, mono-2-ethylhexyl ester] | > 200 µM | 5.83 | 5.76 | 5.77 | 6.08 | 6.11 | 6.44 | 5.88
6 | Nc1c(Cl)c(Cl)nc(C(=O)O)c1Cl [Picloram] | > 200 µM | 6.16 | 6.06 | 6.09 | 6.14 | 6.12 | 6.14 | 5.97
7 | CCc1ccc(CCOc2ccc(CC3SC(=O)NC3=O)cc2)nc1 (centres undefined) [Pioglitazone HCl] | > 200 µM | 5.98 | 5.94 | 5.95 | 5.96 | 5.91 | 5.87 | 5.76
8 | C1CNCCN1 [Piperazine] | > 200 µM | 5.84 | 5.81 | 5.85 | 5.84 | 5.89 | 5.84 | 5.74
9 | Cc1nc(N(C)C)nc(OC(=O)N(C)C)c1C [Pirimicarb] | > 200 µM | 5.83 | 5.88 | 6.03 | 5.99 | 6.32 | 5.99 | 5.96
10 | Cc1cccc(Nc2cc(Cl)nc(SCC(=O)O)n2)c1C [Pirinixic acid] | > 200 µM | 6.05 | 5.95 | 5.99 | 5.97 | 5.94 | 5.77 | 5.93
11 | O=S(=O)(O)C(F)(F)C(F)(F)C(F)(F)C(F)(F)F [Potassium nonafluoro-1-butanesulfonate] | > 200 µM | 5.49 | 5.58 | 5.55 | 5.7 | 5.7 | 5.65 | 5.81
12 | CC[C@H](C)C(=O)O[C@H]1C[C@H](O)C=C2C=C[C@H](C)[C@H](CC[C@@H](O)C[C@@H](O)CC(=O)O)[C@H]21 [Pravastatin sodium] | > 200 µM | 5.99 | 5.97 | 5.93 | 5.92 | 5.91 | 5.79 | 5.81
13 | CCCOC(=O)NCCCN(C)C [Propamocarb hydrochloride] | > 200 µM | 5.84 | 5.93 | 5.9 | 5.93 | 6.01 | 5.91 | 5.89
14 | CNC(=O)Oc1ccccc1OC(C)C [Propoxur] | > 200 µM | 6.04 | 5.9 | 6.09 | 6.03 | 5.83 | 6.46 | 5.8
15 | CCCc1ccccc1 [Propylbenzene] | 50 µM | 5.75 | 5.64 | 5.71 | 5.69 | 5.38 | 5.53 | 5.61
16 | CC(O)CO (centres undefined) [Propylene glycol] | > 200 µM | 6.09 | 5.99 | 6.05 | 6.02 | 5.91 | 5.9 | 5.71
17 | CCCOC(=O)c1ccc(O)cc1 [Propylparaben] | > 200 µM | 5.95 | 5.95 | 5.9 | 5.92 | 5.84 | 5.87 | 5.79
18 | CC1=NNC(=O)N(/N=C/c2cccnc2)C1 [Pymetrozine] | > 200 µM | 5.74 | 5.77 | 5.8 | 5.78 | 5.77 | 5.89 | 5.76
19 | CCOC(=O)COc1cc(-c2nn(C)c(OC(F)F)c2Cl)c(F)cc1Cl [Pyraflufen-ethyl] | > 200 µM | 5.75 | 5.74 | 5.74 | 5.85 | 5.98 | 6.02 | 5.88
20 | COc1cc(OC)nc(Sc2cccc(Cl)c2C(=O)O)n1 [Pyrithiobac-sodium] | > 200 µM | 5.98 | 6 | 6.11 | 6.18 | 6.06 | 6.1 | 5.69
21 | O=C(O)c1c(Cl)ccc2cc(Cl)cnc12 [Quinclorac] | > 200 µM | 5.97 | 6.03 | 6.03 | 5.99 | 5.97 | 6.07 | 5.76
22 | c1ccc2ncccc2c1 [Quinoline] | > 200 µM | 5.87 | 5.87 | 5.78 | 5.79 | 5.78 | 5.81 | 5.73
23 | Oc1cccc(O)c1 [Resorcinol] | > 200 µM | 5.81 | 5.86 | 5.94 | 5.84 | 5.88 | 5.84 | 5.78
24 | CC1=C(/C=C/C(C)=C/C=C/C(C)=C/CO)C(C)(C)CCC1 [Retinol] | > 200 µM | 5.92 | 5.89 | 5.91 | 5.75 | 5.9 | 5.84 | 5.68
25 | O=C1NS(=O)(=O)c2ccccc21.[Na] [Saccharin sodium salt hydrate] | > 200 µM | 5.88 | 5.93 | 5.96 | 5.9 | 5.89 | 5.9 | 5.79
26 | CCNc1nc(Cl)nc(NCC)n1 [Simazine] | > 200 µM | 6.2 | 6.08 | 6.12 | 6.13 | 6.17 | 6.19 | 5.77
27 | O=C([O-])c1ccccc1.[Na+] [Sodium benzoate] | > 200 µM | 5.83 | 5.83 | 5.95 | 5.83 | 5.86 | 5.76 | 5.68
28 | CC(=O)C1C(=O)C=C(C)OC1=O (centres undefined) [Sodium dehydroacetate] | > 200 µM | 5.99 | 5.95 | 5.97 | 5.86 | 5.94 | 5.93 | 5.72
